Laboratory results: the supplement of paper PMC11061612

Experiments:
[1] = system: Hs-746T (Gastric Carcinoma); experiment: Bliss excess, mean over the matrix (fraction); higher = more synergy
Procedure, shortened: (§1)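 Cell lines in DMEM/F12 or RPMI with 10% FBS were plated in 1536-well plates, held 24 hours at 37°C, 5% CO2, then given two-drug dose matrices for 72 hours (DMSO typically 0.2%). Viability was read by CellTiter-Glo 2.0 luminescence and scaled as inhibition from 0 (vehicle wells) to 1 (blank wells). Combination Emax is the second-highest inhibition in the matrix; Bliss excess is observed combination effect minus expected EA + EB − EA·EB, EA and EB being single-agent effects.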

[2] = system: LNZTA3WT4 (Low Grade Glioma); experiment: as above
Procedure, shortened: as §1

[3] = system: YAPC (Pancreatic Carcinoma); experiment: as above
Procedure, shortened: as §1

[4] = system: Detroit562 (Head and Neck Carcinoma); experiment: as above
Procedure, shortened: as §1

[5] = system: FTC-133 (Thyroid Gland Carcinoma); experiment: as above
Procedure, shortened: as §1

[6] = system: MHH-CALL-2 (B-Lymphoblastic Leukemia); experiment: combination Emax (second highest fraction inhibited in the dose matrix, 72 h); higher = more inhibition; extreme values may be limits of the assay
Procedure, shortened: as §1

[7] = system: LNZTA3WT4 (Low Grade Glioma); experiment: as above
Procedure, shortened: as §1

[8] = system: HuCCT1 (Biliary Tract Carcinoma); experiment: as above
Procedure, shortened: as §1

[9] = system: L-428 (Hodgkin's Lymphoma); experiment: as above
Procedure, shortened: as §1

[10] = system: SW1573 (Lung Adenocarcinoma); experiment: as above
Procedure, shortened: as §1

[11] = system: EW-11 (Ewing's Sarcoma); experiment: as above
Procedure, shortened: as §1

[12] = system: BE2-M17 (Neuroblastoma); experiment: as above
Procedure, shortened: as §1

[13] = system: NCI-H2052 (Mesothelioma); experiment: as above
Procedure, shortened: as §1

[14] = system: CAL-72 (Osteosarcoma); experiment: as above
Procedure, shortened: as §1

[15] = system: OE21 (Esophageal Squamous Cell Carcinoma); experiment: as above
Procedure, shortened: as §1

[16] = system: SNU-16 (Gastric Carcinoma); experiment: as above
Procedure, shortened: as §1

[17] = system: LCLC-97TM1 (Non-Small Cell Lung Carcinoma); experiment: as above
Procedure, shortened: as §1

[18] = system: FTC-133 (Thyroid Gland Carcinoma); experiment: as above
Procedure, shortened: as §1

[19] = system: NUGC-4 (Gastric Carcinoma); experiment: as above
Procedure, shortened: as §1

[20] = system: HeLa (Cervical Carcinoma); experiment: as above
Procedure, shortened: as §1
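Throughout, for Bliss excess, mean over the matrix: after 72 h of two-drug dosing.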

Structure (SMILES)	Bliss excess [1]	Bliss excess [2]	Bliss excess [3]	Bliss excess [4]	Bliss excess [5]	combination Emax [6]	combination Emax [7]	combination Emax [8]	combination Emax [9]	combination Emax [10]	combination Emax [11]	combination Emax [12]	combination Emax [13]	combination Emax [14]	combination Emax [15]	combination Emax [16]	combination Emax [17]	combination Emax [18]	combination Emax [19]	combination Emax [20]
NC1(C(=O)N[C@@H](CCO)c2ccc(Cl)cc2)CCN(c2ncnc3[nH]ccc23)CC1 [Capivasertib] + CCN(CCO)CCCOc1ccc2c(Nc3cc(CC(=O)Nc4cccc(F)c4)[nH]n3)ncnc2c1 [AZD2811] (first compound max 10 µM, 7x7, partner max 1 µM)	-0.0265	-0.0551	0.0161	-0.0114	0.0005	0.532	0.475	0.309	0.302	0.374	0.611	0.493	0.427	0.321	0.642	0.663	0.686	0.643	0.0827	0.23
CC(=O)c1c(C)c2cnc(Nc3ccc(N4CCNCC4)cn3)nc2n(C2CCCC2)c1=O [Palbociclib] + CC1(C)CCC(CN2CCN(c3ccc(C(=O)NS(=O)(=O)c4ccc(NCC5CCOCC5)c([N+](=O)[O-])c4)c(Oc4cnc5[nH]ccc5c4)c3)CC2)=C(c2ccc(Cl)cc2)C1 [Venetoclax] (first compound max 10 µM, 7x7, partner max 1 µM)	-0.0117	-0.0032	-0.0109	0.0008	-0.0481	0.155	0.307	0.309	0.467	0.204	0.203	0.386	0.133	0.345	0.229	0.699	0.176	0.0919	0.194	0.0741
COc1nnc2ccc(N3CCC(c4ccc(OCCN5CCN(C)C(=O)[C@H]5C)cc4)CC3)nn12 [AZD5153] + Cc1c2c(nn1C)CSCc1cc(n(C)n1)CSc1cc(c3ccccc3c1)OCCCc1c(C(=O)O)n(C)c3c-2c(Cl)ccc13 [AZD5991] (first compound max 1 µM, 7x7, partner max 1 µM)	-0.0244	0.0112	-0.0355	-0.0459	-0.0112	1	0.441	0.495	0.833	0.422	0.945	0.847	0.328	0.792	0.83	1	0.733	0.615	0.652	0.799
Cc1c2c(nn1C)CSCc1cc(n(C)n1)CSc1cc(c3ccccc3c1)OCCCc1c(C(=O)O)n(C)c3c-2c(Cl)ccc13 [AZD5991] + Cn1cnc2c(F)c(Nc3ccc(Br)cc3Cl)c(C(=O)NOCCO)cc21 [Selumetinib] (first compound max 1 µM, 7x7, partner max 3 µM)	-0.018	0.0046	-0.003	0.0295	0.0108	1	0.237	0.508	0.0936	0.169	0.76	0.956	0.314	0.406	0.469	0.989	0.694	0.738	0.616	0.496
COc1nnc2ccc(N3CCC(c4ccc(OCCN5CCN(C)C(=O)[C@H]5C)cc4)CC3)nn12 [AZD5153] + CC1(C)CCC(CN2CCN(c3ccc(C(=O)NS(=O)(=O)c4ccc(NCC5CCOCC5)c([N+](=O)[O-])c4)c(Oc4cnc5[nH]ccc5c4)c3)CC2)=C(c2ccc(Cl)cc2)C1 [Venetoclax] (first compound max 1 µM, 7x7, partner max 1 µM)	-0.119	-0.0571	-0.0115	-0.0552	-0.0745	0.429	0.344	0.511	0.8	0.43	0.457	0.621	0.359	0.495	0.662	0.731	0.685	0.578	0.567	0.433
CN(CCO)CC[C@H](CSc1ccccc1)Nc1ccc(S(=O)(=O)NC(=O)c2ccc(N3CCC([C@@H](O)c4ccccc4-c4ccc(Cl)cc4)CC3)cc2)cc1S(=O)(=O)C(F)(F)F [AZD4320] + C1CN(CCC1(C(=O)N[C@@H](CCO)C2=CC=C(C=C2)Cl)N)C3=NC=NC4=C3C=CN4 [Capivasertib] (first compound max 1 µM, 7x7, partner max 3 µM)	0.0094	-0.0176	-0.0415	-0.0535	-0.0459	0.311	0.218	0.121	0.785	0.296	0.837	0.374	0.229	0.315	0.441	0.27	0.335	0.517	0.0873	0.0628
CC1(C)CCC(CN2CCN(c3ccc(C(=O)NS(=O)(=O)c4ccc(NCC5CCOCC5)c([N+](=O)[O-])c4)c(Oc4cnc5[nH]ccc5c4)c3)CC2)=C(c2ccc(Cl)cc2)C1 [Venetoclax] + Cn1cnc2c(F)c(Nc3ccc(Br)cc3Cl)c(C(=O)NOCCO)cc21 [Selumetinib] (first compound max 1 µM, 7x7, partner max 3 µM)	-0.0192	-0.0321	-0.0474	-0.0516	-0.0232	0.482	0.308	0.38	0.137	0.0752	0.451	0.635	0.213	0.403	0.337	0.241	0.458	0.133	0.499	0.103
Cc1c2c(nn1C)CSCc1cc(n(C)n1)CSc1cc(c3ccccc3c1)OCCCc1c(C(=O)O)n(C)c3c-2c(Cl)ccc13 [AZD5991] + CCN(CCO)CCCOc1ccc2c(Nc3cc(CC(=O)Nc4cccc(F)c4)[nH]n3)ncnc2c1 [AZD2811] (first compound max 1 µM, 7x7, partner max 1 µM)	-0.0477	0.038	-0.0037	0.0396	0.0074	0.987	0.256	0.267	0.31	0.321	0.872	0.905	0.265	0.473	0.522	0.996	0.722	0.761	0.22	0.763
Cn1cnc2c(F)c(Nc3ccc(Br)cc3Cl)c(C(=O)NOCCO)cc21 [Selumetinib] + C[C@@H]1COCCN1C2=NC(=NC(=C2)C3(CC3)[S@](=N)(=O)C)C4=C5C=CNC5=NC=C4 [AZD6738] (first compound max 10 µM, 7x7, partner max 10 µM)	0.0382	-0.0661	-0.0019	-0.0438	-0.0828	0.951	0.712	0.703	0.69	0.284	0.592	0.83	0.395	0.752	0.837	0.966	0.756	0.724	0.607	0.486
CN(C)CCCOc1ccc(-c2ccc3ncc4c(c3c2)n(C2CCOCC2)c(=O)n4C)cn1 [AZD0156] + O=C(c1cc(Cc2n[nH]c(=O)c3ccccc23)ccc1F)N1CCN(C(=O)C2CC2)CC1 [Olaparib] (first compound max 3 µM, partner max 3 µM)	0.0802	-0.0184	0.0131	0.058	–	0.228	0.206	0.202	0.228	0.162	0.539	0.331	0.251	0.416	0.283	–	0.109	–	0.286	0.131
C=CCn1c(=O)c2cnc(Nc3ccc(N4CCN(C)CC4)cc3)nc2n1-c1cccc(C(C)(C)O)n1 [AZD1775] + C1CN(CCC1(C(=O)N[C@@H](CCO)C2=CC=C(C=C2)Cl)N)C3=NC=NC4=C3C=CN4 [Capivasertib] (first compound max 3 µM, partner max 3 µM)	0.031	-0.0111	-0.0097	0.0209	–	0.869	0.804	0.741	0.759	0.572	0.69	0.906	0.518	0.845	0.747	–	0.793	–	0.574	0.877
CN(C)CCCOc1ccc(-c2ccc3ncc4c(c3c2)n(C2CCOCC2)c(=O)n4C)cn1 [AZD0156] + C=CCn1c(=O)c2cnc(Nc3ccc(N4CCN(C)CC4)cc3)nc2n1-c1cccc(C(C)(C)O)n1 [AZD1775] (first compound max 1 µM, partner max 1 µM)	-0.0305	-0.0561	-0.0575	-0.0122	-0.0416	–	0.783	0.717	0.824	0.268	0.486	0.57	0.376	0.778	0.567	0.919	0.828	0.536	0.273	0.498
CCc1c2c(nc3ccc(O)cc13)-c1cc3c(c(=O)n1C2)COC(=O)[C@]3(O)CC [SN-38] + CN(C)CCCOc1ccc(-c2ccc3ncc4c(c3c2)n(C2CCOCC2)c(=O)n4C)cn1 [AZD0156] (first compound max 0.3 µM, 7x7, partner max 1 µM)	-0.029	0.0092	-0.0553	0.118	-0.0031	–	0.449	0.508	0.894	0.794	0.739	0.887	0.837	0.774	0.678	0.927	0.693	0.959	0.287	0.295
